Measured values: patent US8772448B2, “Peptides immunoreactive with autoantibodies from patients suffering from rheumatoid arthritis” (Stichting Voor de Technische Wetenschappen, priority 1996, dated 2014)
Where no end group is shown, it is not given here. [ ]: non-standard residue; d: D form. Cit = NC(=O)NCCC[C@H](N)C(=O)O

Experiments:
Type in all cases: binding, human
[1] = system: autoimmune antibodies in sera from patients suffering from rheumatoid arthritis; test: ELISA of coupled peptides with RA sera; settings: for RA sera (%) positive / RA sera: number of positive sera: n = 134 RA sera, positive = OD450 of 0.2 after deduction of blank; for immunological reactivity in ELISA: RA sera; for RA sera: number of positive sera: sera diluted 200 times
Protocol: (§1) Detection by Means of ELISA
Via an N-oxysuccinimide surface the peptides were covalently coupled to the wells of 96-well microtitre plates (Costar amide binding plates) in an amount of 1 ? g/well. Coupling took place for 16 hours at 4EC and pH 9.0. The plates were blocked for 1 hour with 2% bovine serum albumin. The sera were diluted 200 times in a diluent (0.3% BSA, 350 mM NaCl, 10 mM Tris-HCl pH 7.6, 1% vol./vol. Triton X-100, 0.5% w./vol. Na-deoxycholate, 0.1% SDS) supplemented with 10% normal rabbit serum, and incubated for one hour at room temperature. After washing the plates (3 times with PBS containing 0.05 by vol. of Tween® 20), 100 ? l of antihuman IgG conjugated with peroxidase (Dako P214), 1000 times diluted in dilution buffer, was added to the wells. After incubation for 1 hour at room temperature, the plates were washed 3 times with PBS/Tween®, and bound antibodies were detected with tetramethyl benzidine as a substrate. After 10 minutes the reaction was stopped by adding 100 ? l of 2 M sulphuric acid per well. Readout occurred at 450 nm. Sera having an OD450 of 0.2, after deduction of the blank for the respective serum (a well without a coupled peptide), were considered to be positive. […]

[2] = system: antibodies in PM/DM (polymyositis/dermatomyositis) sera; test: ELISA of coupled peptides with PM/DM sera; settings: n = 50
Protocol: as §1
(§2) Via an N-oxysuccinimide surface the peptides were covalently coupled to the wells of 96-well microtitre plates (Costar amide binding plates) in an amount of 1 ? g/well. Coupling took place for 16 hours at 4EC and pH 9.0. The plates were blocked for 1 hour with 2% bovine serum albumin. The sera were diluted 200 times in a diluent (0.3% BSA, 350 mM NaCl, 10 mM Tris-HCl pH 7.6, 1% vol./vol. Triton X-100, 0.5% w./vol. Na-deoxycholate, 0.1% SDS) supplemented with 10% normal rabbit serum, and incubated for one hour at room temperature. After washing the plates (3 times with PBS containing 0.05 by vol. of Tween® 20), 100 ? l of antihuman IgG conjugated with peroxidase (Dako P214), 1000 times diluted in dilution buffer, was added to the wells. After incubation for 1 hour at room temperature, the plates were washed 3 times with PBS/Tween®, and bound antibodies were detected with tetramethyl benzidine as a substrate. After 10 minutes the reaction was stopped by adding 100 ? l of 2 M sulphuric acid per well. Readout occurred at 450 nm. Sera having an OD450 of 0.2, after deduction of the blank for the respective serum (a well without a coupled peptide), were considered to be positive.

[3] = system: antibodies in SLE (systemic lupus erythematosus) sera; test: ELISA of coupled peptides with SLE sera; settings: n = 50
Protocol: as §1, §2

[4] = system: antibodies in SSC (systemic scleroderma) sera; test: ELISA of coupled peptides with SSC sera; settings: n = 50
Protocol: as §1, §2

[5] = system: antibodies in pSS (primary Sjögren's syndrome) sera; test: ELISA of coupled peptides with pSS sera; settings: n = 50
Protocol: as §1, §2

[6] = system: antibodies in control sera from patients suffering from rheumatic diseases other than RA; test: ELISA of coupled peptides with control sera; settings: n = 154; rheumatic diseases other than RA
Protocol: as §1, §2
In total, 288 sera from patients suffering from rheumatoid diseases were used, 132 of which were from patients suffering from rheumatoid arthritis.

Sequence | RA sera (%) positive [1] | immunological reactivity in ELISA [1] | PM/DM (%) positive [2] | PM/DM: number of positive sera [2] | SLE: number of positive sera [3] | SSC (%) positive [4] | SSC: number of positive sera [4] | pSS (%) positive [5] | pSS: number of positive sera [5] | control sera (%) positive [6] | control sera: number of positive sera [6] | RA sera: number of positive sera [1] | SLE (%) positive [3]
TGPSTRGRQGSXHE (TGPSTRGRQGS[Cit]HE-NH2; N-terminus assumed; SMILES C[C@@H](O)[C@H](N)C(=O)NCC(=O)N1CCC[C@H]1C(=O)N[C@@H](CO)C(=O)N[C@H](C(=O)N[C@@H](CCCNC(=N)N)C(=O)NCC(=O)N[C@@H](CCCNC(=N)N)C(=O)N[C@@H](CCC(N)=O)C(=O)NCC(=O)N[C@@H](CO)C(=O)N[C@@H](CCCNC(N)=O)C(=O)N[C@@H](Cc1c[nH]cn1)C(=O)N[C@@H](CCC(=O)O)C(N)=O)[C@@H](C)O) [nfc1] | 10% |  |  |  |  |  |  |  |  |  |  |  | 
SHQESTQGRSRGRSGRSGS [cfQ, reference compound] |  | did not seem to be immunologically reactive |  |  |  |  |  |  |  |  |  |  | 
SHQESTRGRSRGRSGXSGS (SHQESTRGRSRGRSG[Cit]SGS-NH2; N-terminus assumed; SMILES C[C@@H](O)[C@H](NC(=O)[C@H](CO)NC(=O)[C@H](CCC(=O)O)NC(=O)[C@H](CCC(N)=O)NC(=O)[C@H](Cc1c[nH]cn1)NC(=O)[C@@H](N)CO)C(=O)N[C@@H](CCCNC(=N)N)C(=O)NCC(=O)N[C@@H](CCCNC(=N)N)C(=O)N[C@@H](CO)C(=O)N[C@@H](CCCNC(=N)N)C(=O)NCC(=O)N[C@@H](CCCNC(=N)N)C(=O)N[C@@H](CO)C(=O)NCC(=O)N[C@@H](CCCNC(N)=O)C(=O)N[C@@H](CO)C(=O)NCC(=O)N[C@@H](CO)C(N)=O) [cfc5] | 48% |  | 2% | 1 | 0 | 2% | 1 | 4% | 2 | 0.6% | 1 | 64 | 
SHQESTXGRSRGXSGRSGS (SHQEST[Cit]GRSRG[Cit]SGRSGS-NH2; N-terminus assumed; SMILES C[C@@H](O)[C@H](NC(=O)[C@H](CO)NC(=O)[C@H](CCC(=O)O)NC(=O)[C@H](CCC(N)=O)NC(=O)[C@H](Cc1c[nH]cn1)NC(=O)[C@@H](N)CO)C(=O)N[C@@H](CCCNC(N)=O)C(=O)NCC(=O)N[C@@H](CCCNC(=N)N)C(=O)N[C@@H](CO)C(=O)N[C@@H](CCCNC(=N)N)C(=O)NCC(=O)N[C@@H](CCCNC(N)=O)C(=O)N[C@@H](CO)C(=O)NCC(=O)N[C@@H](CCCNC(=N)N)C(=O)N[C@@H](CO)C(=O)NCC(=O)N[C@@H](CO)C(N)=O) [cfc8] | 41% |  | 2% | 1 | 0 |  | 0 | 2% | 1 | 0.6% | 1 | 55 | 
SHQESTXGRSRGRSGXSGS (SHQEST[Cit]GRSRGRSG[Cit]SGS-NH2; N-terminus assumed; SMILES C[C@@H](O)[C@H](NC(=O)[C@H](CO)NC(=O)[C@H](CCC(=O)O)NC(=O)[C@H](CCC(N)=O)NC(=O)[C@H](Cc1c[nH]cn1)NC(=O)[C@@H](N)CO)C(=O)N[C@@H](CCCNC(N)=O)C(=O)NCC(=O)N[C@@H](CCCNC(=N)N)C(=O)N[C@@H](CO)C(=O)N[C@@H](CCCNC(=N)N)C(=O)NCC(=O)N[C@@H](CCCNC(=N)N)C(=O)N[C@@H](CO)C(=O)NCC(=O)N[C@@H](CCCNC(N)=O)C(=O)N[C@@H](CO)C(=O)NCC(=O)N[C@@H](CO)C(N)=O) [cfc9] | 42% |  |  | 0 | 0 |  | 0 | 4% | 2 | 0.6% | 1 | 57 | 
SHQESTEGRSRGRSGRSGS [cfE, reference compound] |  | did not seem to be immunologically reactive |  |  |  |  |  |  |  |  |  |  | 
SHQESTXGRSXGRSGRSGS (SHQEST[Cit]GRS[Cit]GRSGRSGS-NH2; N-terminus assumed; SMILES C[C@@H](O)[C@H](NC(=O)[C@H](CO)NC(=O)[C@H](CCC(=O)O)NC(=O)[C@H](CCC(N)=O)NC(=O)[C@H](Cc1c[nH]cn1)NC(=O)[C@@H](N)CO)C(=O)N[C@@H](CCCNC(N)=O)C(=O)NCC(=O)N[C@@H](CCCNC(=N)N)C(=O)N[C@@H](CO)C(=O)N[C@@H](CCCNC(N)=O)C(=O)NCC(=O)N[C@@H](CCCNC(=N)N)C(=O)N[C@@H](CO)C(=O)NCC(=O)N[C@@H](CCCNC(=N)N)C(=O)N[C@@H](CO)C(=O)NCC(=O)N[C@@H](CO)C(N)=O) [cfc7] | 45% |  | 2% | 1 | 0 |  | 0 | 2% | 1 | 0.6% | 1 | 60 | 
SHQESTXGXSRGRSGRSGS (SHQEST[Cit]G[Cit]SRGRSGRSGS-NH2; N-terminus assumed; SMILES C[C@@H](O)[C@H](NC(=O)[C@H](CO)NC(=O)[C@H](CCC(=O)O)NC(=O)[C@H](CCC(N)=O)NC(=O)[C@H](Cc1c[nH]cn1)NC(=O)[C@@H](N)CO)C(=O)N[C@@H](CCCNC(N)=O)C(=O)NCC(=O)N[C@@H](CCCNC(N)=O)C(=O)N[C@@H](CO)C(=O)N[C@@H](CCCNC(=N)N)C(=O)NCC(=O)N[C@@H](CCCNC(=N)N)C(=O)N[C@@H](CO)C(=O)NCC(=O)N[C@@H](CCCNC(=N)N)C(=O)N[C@@H](CO)C(=O)NCC(=O)N[C@@H](CO)C(N)=O) [cfc6] | 48% |  | 2% | 1 | 0 |  | 0 | 4% | 2 | 0.6% | 1 | 65 | 
SHQESTRGXSRGRSGRSGS (SHQESTRG[Cit]SRGRSGRSGS-NH2; N-terminus assumed; SMILES C[C@@H](O)[C@H](NC(=O)[C@H](CO)NC(=O)[C@H](CCC(=O)O)NC(=O)[C@H](CCC(N)=O)NC(=O)[C@H](Cc1c[nH]cn1)NC(=O)[C@@H](N)CO)C(=O)N[C@@H](CCCNC(=N)N)C(=O)NCC(=O)N[C@@H](CCCNC(N)=O)C(=O)N[C@@H](CO)C(=O)N[C@@H](CCCNC(=N)N)C(=O)NCC(=O)N[C@@H](CCCNC(=N)N)C(=O)N[C@@H](CO)C(=O)NCC(=O)N[C@@H](CCCNC(=N)N)C(=O)N[C@@H](CO)C(=O)NCC(=O)N[C@@H](CO)C(N)=O) [cfc2] | 20% |  | 2% | 1 | 1 |  | 0 | 2% | 1 | 2.6% | 4 | 27 | 2%
ESSHGWTGPSTRGRQGSRHE [nf, reference compound] |  | not |  |  |  |  |  |  |  |  |  |  | 
SHQESTRGRSRGRSGRSGS (Derived from known cDNA sequences of human profilaggrin) [cf, reference compound] |  | did not seem to be immunologically reactive |  |  |  |  |  |  |  |  |  |  | 
SHQESTAGRSRGRSGRSGS [cfA, reference compound] |  | did not seem to be immunologically reactive |  |  |  |  |  |  |  |  |  |  | 
